Tests used:
[1] = E → Z photo-isomerisation with LEDs / photo-stationary state (PSS) determination; format: physicochemical; settings: under irradiation
Method: The E → Z photo-isomerisation and half-life for the Z → E thermal isomerisation was evaluated for all derivatives (Fig. 7 and Table 1, see ESI ^† for original data). To our surprise, the half-lives for (Z)-X2,m-Y2 derivatives were in the order of hours to days for X = F and Cl: the effect of the meta group was not as drastic as anticipated. We typically observed a ∼4 fold decrease in half-life by substituting H with OMe, and a further 3-fold drop from OMe to NMe2 for X = F, Cl and SEt. The nature of the ortho-substituent appeared to be the main influence on τ1/2 (F > Cl ≫ SEt). However, these predictable trends observed for the meta-substitution allow for precise tuning of thermal half-lives. The photo-stationary states (PSSs) of these derivatives ranged from 48–77% Z isomer (Table 1).
Remarkably, it was possible to photo-switch the tetra-iodo derivative I4-ester using near-IR light (730 nm) (Fig. 8C). […] Photo-isomerisation was not detected for the ortho-telluro derivatives. This is consistent with findings by Haberhauer and co-workers, who propose that the strong chalcogen bonds in the E isomer of a PhTe-substituted azobenzene lead to dramatic energy differences between the E and Z isomers, which suppresses photoswitching.[43] The photo-stationary states of the halogen X4 derivatives range from 50–84% (Table 1) and could also be determined for the slower relaxing chalcogen derivatives (PSS 46–95%, see Fig. S308–S323 ^† for original data).
All UV-vis spectra were determined in DMSO solution. Extinction coefficients were determined by recording a UV-vis spectra for the E isomer at 10, 20, 30, 40 µM in DMSO respectively. The absorbance at the maximum of the π - π* transition of the E‐isomers was plotted against concentration (Beer-Lambert plot) to determine the molar extinction coefficient ε. For each slow relaxing compound, the E isomer sample at 40 µM was irradiated with the appropriate wavelength of light to generate the photo-stationary state, and another spectrum was run. This spectrum was normalised to units of ε and overlaid with the dark (100% E isomer) spectrum. […]

[2] = UV-vis spectra of the E isomers (n → π* absorption maximum); format: physicochemical; settings: E isomer, DMSO
Text: The UV-vis spectra of the (E)-X4 derivatives and (E)-X2,m-Y2 are shown in Fig. 3 (analogous spectra for the Z isomers, and deconvoluted spectra are available in the ESI ^†). […] The n → π* transition maximum, λmax, typically followed the order meta-H > –NMe2 > –OMe and ortho-S > Cl > F. It is clear from these experiments that the four ortho X substituents in the X4 derivatives are essential for achieving the deeply red-shifted tails which allows for red/near-IR triggered photo-isomerisation.
All UV-vis spectra were determined in DMSO solution. Extinction coefficients were determined by recording a UV-vis spectra for the E isomer at 10, 20, 30, 40 µM in DMSO respectively. The absorbance at the maximum of the π - π* transition of the E‐isomers was plotted against concentration (Beer-Lambert plot) to determine the molar extinction coefficient ε. For each slow relaxing compound, the E isomer sample at 40 µM was irradiated with the appropriate wavelength of light to generate the photo-stationary state, and another spectrum was run. This spectrum was normalised to units of ε and overlaid with the dark (100% E isomer) spectrum.

Row | Stability to light [1] | λ max of n → π* transition [2] [nm] | Compound
1 | unstable to light | 425.4 | COc1cc(CNC(=O)OC(C)(C)C)c(OC)c(F)c1/N=N/c1c(OC)cc(CNC(=O)OC(C)(C)C)c(OC)c1F [(OMe)2F2,m-OMe2-NHBoc]
2 | unstable to light | 426.6 | COc1cc(/N=N/c2cc(OC)c(CNC(=O)OC(C)(C)C)cc2OC)c(OC)cc1CNC(=O)OC(C)(C)C [OMe2,m-OMe2]

Reference: publication PMC9555560, “Fast relaxing red and near-IR switchable azobenzenes with chalcogen and halogen substituents: periodic trends, tuneable thermal half-lives and chalcogen bonding” (Chemical Science, 2022)
